Experimental data: US20230083973A1, “SUBSTITUTED CYCLOPROPYL-2,2'-BIP[…], ANALOGUES THEREOF, AND METHODS USING SAME” (priority 2019, published 2023)
Like-named read-outs stand apart in the source and are kept apart here.

Test system: HBsAg
Test: HBsAg assay: inhibition of HBsAg in HepG2.2.15 cells (chemiluminescence immunoassay of supernatant)
Format: cell-based, hepatitis B virus
Settings: HBsAg in supernatant at day 6 after exposure to compound, 0.5% DMSO
How it was run: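 Secreted HBsAg quantified by CLIA in day-6 supernatants of HepG2.2.15 cultures given compound dilutions at 0.5% final DMSO, with one compound/medium replenishment after 2–3 days. Dose-response fits gave EC50 (50% inhibition); viability checked separately by CellTiter-Glo.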

[1] = Hepatitis B virus, HepG2.2.15, 144 h, read-out: sAg EC50, HepG2.2.15 cells
[2] = read-out: sAg EC50, HepG2.2.15 cells

| Structure (SMILES) | EC50 [1] | EC50 [2] |
| --- | --- | --- |
| COCc1cnn(-c2cc([C@@H]3C[C@H]3c3cnc(-c4ncccn4)nc3)cc(F)c2F)c1 (relative stereo) [Example 236, trans-5-(2-(3,4-Difluoro-5-(4-(methoxymethyl)-1H-pyrazol-1-yl)phenyl)cyclopropyl)-2,2′-bipyrimidine] | 78 nM |  |
| Fc1ccc([C@@H]2C[C@H]2c2ccnc(-c3ncccn3)n2)cc1F (relative stereo) [Example 4, trans-4-(2-(3,4-Difluorophenyl)cyclopropyl)-2,2′-bipyrimidine] | 7000 nM |  |
| Fc1ccc(C2CC2c2cnc(-c3ncccn3)nc2)cc1OC(F)F (single isomer, unassigned) [Example 186, trans-5-(2-(3-(Difluoromethoxy)-4-fluorophenyl)cyclopropyl)-2,2′-bipyrimidine] |  | 1600 nM |
| COc1cc(C2CC2c2cnc(-c3ncccn3)nc2)c(C)cc1Cl (single isomer, unassigned) [Example 52, trans-5-(2-(4-Chloro-5-methoxy-2-methylphenyl)cyclopropyl)-2,2′-bipyrimidine] |  | 1000 nM |
| COc1ccc([C@@H]2C[C@H]2c2cnc(-c3ncccn3)nc2)c(F)c1 (relative stereo) [Example 1, trans-5-(2-(2-Fluoro-4-methoxyphenyl)cyclopropyl)-2,2′-bipyrimidine] | 200 nM |  |
| COCCOc1cc(C2CC2c2cnc(-c3ncccn3)nc2)ccc1F (single isomer, unassigned) [Example 21, trans-5-(2-(4-Fluoro-3-(2-methoxyethoxy)phenyl)cyclopropyl)-2,2′-bipyrimidine] |  | 490 nM |
| Fc1cc(Cl)cc(C2CC2c2cnc(-c3ncccn3)nc2)c1 (single isomer, unassigned) [Example 119, trans-5-(2-(3-Chloro-5-fluorophenyl)cyclopropyl)-2,2′-bipyrimidine] |  | 330 nM |
| Cc1nc2c(F)cc([C@@H]3C[C@H]3c3cnc(-c4ncccn4)nc3)cc2n1C(C)C (relative stereo) [Example 271, trans-6-(2-([2,2′-Bipyrimidin]-5-yl)cyclopropyl)-4-fluoro-1-isopropyl-2-methyl-1H-benzo[d]imidazole] | 250 nM |  |
| CO[C@@H]1CCN(c2cc(C3CC3c3cnc(-c4ncccn4)nc3)ccc2F)C1 (single isomer, unassigned) [Example 95] |  | 170 nM |
| O[C@@H]1CCN(c2cc(C3CC3c3cnc(-c4ncccn4)nc3)ccc2F)C1 (single isomer, unassigned) [Example 70] |  | 270 nM |
| Fc1cc(C2CC2c2cnc(-c3ncccn3)nc2)cc(N2CCCC2)c1Cl (single isomer, unassigned) [Example 90, trans-5-(2-(4-Chloro-3-fluoro-5-(pyrrolidin-1-yl)phenyl)cyclopropyl)-2,2′-bipyrimidine] | 28 nM |  |
| COCCOc1ccc(C2CC2c2cnc(-c3ncccn3)nc2)cc1F (single isomer, unassigned) [Example 24, trans-5-(2-(3-Fluoro-4-(2-methoxyethoxy)phenyl)cyclopropyl)-2,2′-bipyrimidine] |  | 150 nM |
| CC(C)OC1CN(c2cc([C@@H]3C[C@H]3c3cnc(-c4ncccn4)nc3)cc(F)c2F)C1 (relative stereo) [Example 210, trans-5-(2-(3,4-Difluoro-5-(3-isopropoxyazetidin-1-yl)phenyl)cyclopropyl)-2,2′-bipyrimidine] | 55 nM |  |
| COc1cc([C@@H]2C[C@H]2c2cnc(-c3ncccc3F)nc2)cc(F)c1F (relative stereo) [Example 179, trans-5-(2-(3,4-Difluoro-5-methoxyphenyl)cyclopropyl)-2-(3-fluoropyridin-2-yl)pyrimidine] | 370 nM |  |
| Clc1ccc(C2CC2c2cnc(-c3ncccn3)nc2)cc1N1CCCC1 (single isomer, unassigned) [Example 199, trans-5-(2-(4-Chloro-3-(pyrrolidin-1-yl)phenyl)cyclopropyl)-2,2′-bipyrimidine] |  | 140 nM |
| CC(=O)N1CC[C@H](Nc2cc(C3CC3c3cnc(-c4ncccn4)nc3)cc(F)c2F)C1 (single isomer, unassigned) [Example 224] |  | 5000 nM |
| COc1cc(C2CC2c2cnc(-c3ncccn3)nc2)ccc1Cl (single isomer, unassigned) [Example 34, trans-5-(2-(4-Chloro-3-methoxyphenyl)cyclopropyl)-2,2′-bipyrimidine] |  | 150 nM |
| COc1cc([C@@H]2C[C@H]2c2cnc(-c3ccncn3)nc2)cc(F)c1F (relative stereo) [Example 177, trans-5-(2-(3,4-Difluoro-5-methoxyphenyl)cyclopropyl)-2,4′-bipyrimidine] | 360 nM |  |
| CN1CC[C@@H](Nc2cc(C3CC3c3cnc(-c4ncccn4)nc3)cc(F)c2F)C1 (single isomer, unassigned) [Example 230] |  | 7000 nM |
| OC1CN(c2cc(C3CC3c3cnc(-c4ncccn4)nc3)ccc2F)C1 (single isomer, unassigned) [Example 54, trans-1-(5-(2-([2,2′-Bipyrimidin]-5-yl)cyclopropyl)-2-fluorophenyl)azetidin-3-ol] |  | 220 nM |
| Fc1ccc(C2CC2c2ccnc(-c3ncccn3)n2)cc1F (single isomer, unassigned) [Example 6, trans-4-(2-(3,4-Difluorophenyl)cyclopropyl)-2,2′-bipyrimidine] |  | 10000 nM |
| COCCOc1cc(C2CC2c2cnc(-c3ncccn3)nc2)ccc1F (single isomer, unassigned) [Example 22, trans-5-(2-(4-Fluoro-3-(2-methoxyethoxy)phenyl)cyclopropyl)-2,2′-bipyrimidine] |  | 59 nM |
| CCc1nc(-c2ncccn2)ncc1C1CC1c1ccc(F)c(OC)c1 (single isomer, unassigned) [Example 77, trans-4-Ethyl-5-(2-(4-fluoro-3-methoxyphenyl)cyclopropyl)-2,2′-bipyrimidine] |  | 5000 nM |
| COc1c(Cl)ccc(C2CC2c2cnc(-c3ncccn3)nc2)c1Cl (single isomer, unassigned) [Example 133, trans-5-(2-(2,4-Dichloro-3-methoxyphenyl)cyclopropyl)-2,2′-bipyrimidine] |  | 130 nM |
| Fc1cc([C@@H]2C[C@H]2c2cnc(-c3ncccn3)nc2)cc(OCc2nccs2)c1F (relative stereo) [Example 218, trans-2-((5-(2-([2,2′-Bipyrimidin]-5-yl)cyclopropyl)-2,3-difluorophenoxy)methyl)thiazole] | 57 nM |  |
| CCc1cc(F)c(OC)cc1C1CC1c1cnc(-c2ncccn2)nc1 (single isomer, unassigned) [Example 35, trans-5-(2-(2-Ethyl-4-fluoro-5-methoxyphenyl)cyclopropyl)-2,2′-bipyrimidine] | 550 nM |  |
| Cc1nc2cc([C@@H]3C[C@H]3c3cnc(-c4ncccn4)nc3)ccc2s1 (relative stereo) [Example 278, trans-5-(2-([2,2′-Bipyrimidin]-5-yl)cyclopropyl)-2-methylbenzo[d]thiazole] | 56 nM |  |
| Clc1ccc(C2CC2c2cnc(-c3ncccn3)nc2)cc1N1CCCC1 (single isomer, unassigned) [Example 200, trans-5-(2-(4-Chloro-3-(pyrrolidin-1-yl)phenyl)cyclopropyl)-2,2′-bipyrimidine] |  | 57 nM |
| COCCCn1ncc2c([C@@H]3C[C@H]3c3cnc(-c4ncccn4)nc3)ccc(F)c21 (relative stereo) [Example 276, trans-4-(2-([2,2′-Bipyrimidin]-5-yl)cyclopropyl)-7-fluoro-1-(3-methoxypropyl)-1H-indazole] | 10 nM |  |
